Measurements as given in US20020044973A1, “MICROPARTICLES AND THEIR USE IN CANCER TREATMENT” (priority 1997, published 2002).
Converted amounts (≈) assume the structure as drawn.

Legend:
C170HM2 = assay: Example 5: liver tumour weight in tumour-bearing mice, loaded HSAMs vs free doxorubicin; format: in vivo; details: 0.24 mg/kg loaded HSAMs or 0.25 mg/kg free doxorubicin; dosing at day 27, termination at day 41; 12 mice per group
Experimental: 0.24 mg/kg doxorubicin-loaded HSAMs (drug loading approx. 1% w/w) were administered to a group of tumour-bearing mice (C170HM2). A further group received HSAMs, at a protein concentration of 100 mg/ml, as a control. A third group received 0.25 mg/kg free doxorubicin. There were 12 mice per group. Dosing was at day 27, termination at day 41.
For the control, the mean liver tumour weight was c. 1.3 g. Following administration of free doxorubicin, the mean weight was c. 0.3 g.

MCF7/Dox cell line = assay: Cytotoxicity in doxorubicin-resistant P-glycoprotein expressing daughter cell line (cell counting, Coulter Counter); format: cell-based; details: Homo sapiens, 24 hours incubation, further 72 hours before counting, microspheres expressed as μg doxorubicin per ml
Experimental: More specifically, the experiment compared the cytotoxicity of a novel preparation of doxorubicin covalently-linked to a human serum albumin microsphere carrier between 2 and 3 μm in diameter on a doxorubicin-sensitive human breast cancer cell line and its doxorubicin-resistant P-glycoprotein expressing daughter cell line. […] The human MCF7 cell line and its doxorubicin-resistant daughter cell line, MCF7/Dox were used.
The medium was then changed, cells were incubated for a further 72 hours before harvesting and counting with a Coulter Counter.

## COc1cccc2c1C(=O)c1c(O)c3c(c(O)c1C2=O)C[C@@](O)(C(=O)CO)C[C@@H]3O[C@H]1C[C@H](N)[C@H](O)[C@H](C)O1 [doxorubicin]
C170HM2
  mean liver tumour weight: ~0.3 g
MCF7/Dox cell line
  IC50: 0.387 µg/mL (≈ 0.712 µM)
